Ki and IC50 data for 36 molecules are collected here from patent US11306066B2, “4H-pyran compounds as insulin-regulated aminopeptidase (IRAP) inhibitors” (Monash University, priority 2015, dated 2022).

The assay addresses T1, recombinant IRAP (Homo sapiens, UniProt Q9UIQ6).
T1 construct: expressed in transfected cells; host or cells: HEK 293T
The assay is described as follows: IRAP enzymatic assay (hydrolysis of Leu-MCA). The assay is classed as biochemical. To be noted: for Ki: calculated from IC50, substrate Leu-MCA; for IC50: substrate Leu-MCA. How it is done:
An in vitro enzymatic assay was used to initially assess IRAP inhibitory activity.
Crude membranes were prepared from HEK 293T cells transfected with IRAP or empty vector, then solubilized in buffer consisting of 50 mM Tris-HCl, 1% Triton X-100, pH 7.4 at 4° C. under agitation over 5 h. After solubilization, the membranes were pelleted by centrifugation at 23,100 g for 15 min at 4° C., and the supernatant was reserved as the source of IRAP activity. The enzymatic activities of recombinant IRAP were determined by the hydrolysis of the synthetic substrate Leu-MCA (Sigma-Aldrich, Missouri, USA) monitored by the release of a fluorogenic product, MCA, at excitation and emission wavelengths of 380 and 440 nm, respectively. Assays were performed in 96-well plates; each well contains between 0.2-10 μg solubilized membrane protein, a range of concentration of substrate in a final volume of 100 μL 50 mM Tris-HCl buffer (pH 7.4). Non-specific hydrolysis of the substrate was corrected by subtracting the emission from incubations with membranes transfected with empty vector. Reactions proceeded at 37° C. for 30 min within a thermostatted FLEX station fluorescence microplate reader (Molecular Devices, Sunnyvale, Calif.). The kinetic parameters (Km and V) were determined by non-linear fitting of the Michaelis-Menten equation (GraphPad Prism, GraphPad Software Inc., CA, USA); final concentrations of Leu-MCA of 15.6 μM-1 mM. Inhibitor constants (Ki) for the competitive inhibitors were calculated from the relationship IC50=[…], where IC50 values were determined over a range of inhibitor concentrations (10^−9 to 10^−4 M). Km values of IRAP for Leu-MCA were determined from the kinetic studies. Binding affinities of the compounds to IRAP were examined by monitoring the inhibition of the hydrolysis of Leu-MCA in the presence of increasing concentrations of the compounds (10^−8 to 10^−3 M). All data obtained were from at least three separate experiments performed in duplicate.
The results for some compounds of Formula (I) are set out below in Tables 2-1 to 2-8. The compounds were obtained commercially (Specs, Interbioscreen Ltd and Chembridge Corporation) or prepared according to the procedures outlined above.

Structures are written as SMILES. Where two headings read alike, the source gives them in different places. A value given as a limit tells only on which side of the number the result lay.

T1 sequence (Q9UIQ6 whole entry): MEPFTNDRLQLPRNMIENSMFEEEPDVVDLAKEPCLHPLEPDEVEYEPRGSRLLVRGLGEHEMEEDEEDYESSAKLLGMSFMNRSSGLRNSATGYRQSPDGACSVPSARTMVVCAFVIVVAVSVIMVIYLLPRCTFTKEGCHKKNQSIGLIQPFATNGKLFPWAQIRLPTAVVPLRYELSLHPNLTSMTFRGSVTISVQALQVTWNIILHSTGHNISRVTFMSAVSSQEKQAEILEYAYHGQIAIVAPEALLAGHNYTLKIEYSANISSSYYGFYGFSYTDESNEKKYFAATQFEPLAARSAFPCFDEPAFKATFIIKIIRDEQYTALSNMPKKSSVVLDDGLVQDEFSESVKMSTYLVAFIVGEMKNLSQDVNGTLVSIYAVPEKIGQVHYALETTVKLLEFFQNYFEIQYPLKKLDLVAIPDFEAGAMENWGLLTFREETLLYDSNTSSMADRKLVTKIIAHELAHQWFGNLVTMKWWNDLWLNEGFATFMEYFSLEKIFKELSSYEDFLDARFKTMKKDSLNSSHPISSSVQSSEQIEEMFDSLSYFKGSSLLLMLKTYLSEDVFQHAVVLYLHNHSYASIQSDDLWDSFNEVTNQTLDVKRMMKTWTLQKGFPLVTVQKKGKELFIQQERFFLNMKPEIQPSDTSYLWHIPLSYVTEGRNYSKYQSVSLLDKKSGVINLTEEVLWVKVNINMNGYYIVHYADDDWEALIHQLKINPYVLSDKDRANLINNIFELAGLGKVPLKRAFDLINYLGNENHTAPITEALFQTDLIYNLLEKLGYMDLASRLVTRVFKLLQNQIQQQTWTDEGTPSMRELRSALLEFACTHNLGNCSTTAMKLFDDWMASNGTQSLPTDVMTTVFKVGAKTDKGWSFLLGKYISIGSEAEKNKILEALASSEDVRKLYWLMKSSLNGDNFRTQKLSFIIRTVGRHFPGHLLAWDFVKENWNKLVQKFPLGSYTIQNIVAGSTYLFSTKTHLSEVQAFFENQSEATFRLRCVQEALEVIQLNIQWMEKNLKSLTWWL

For orientation: Ki means a measure of affinity in units of concentration, obtained from inhibition or displacement. What is called IC50 is the concentration needed to halve the response being measured. Regarding `CCOC(=O)C1=C(C)OC(N)=C(C#N)C1c1cc(Br)c(O)c(OC)c1` (stereo not shown) [Compound 11a], the inhibition constant (Ki) (Table 2-1) was 13.7 µM. For the same molecule, the IC50 (Table 2-1, read-out: IC50) came out at 23 µM. `CCOC(=O)C1=C(C)OC(N)=C(C#N)C1c1ccc(O)c(OC)c1` (stereo not shown) [Compound 11b]: the inhibition constant Ki (Table 2-1) was 13.1 µM. The half-inhibitory concentration (IC50) (Table 2-1, read-out: IC50) is 22 µM. On to `CCOC(=O)C1=C(C)OC(N)=C(C#N)C1c1ccc(O)cc1` (stereo not shown) [Compound 11e], for which, under “Table 2-1”, the Ki is 61.3 µM. Besides, the IC50 (Table 2-1, read-out: IC50) came out at 103 µM. For `CCOC(=O)C1=C(C)OC(N)=C(C#N)C1c1ccc2c(c1)OCO2` (stereo not shown) [Compound 11g], the IC50 (Table 2-1, read-out: IC50) was above 50 µM.

`CCOC(=O)C1=C(C)OC(N)=C(C#N)C1c1cc(OC)c2c(c1)OCO2` (stereo not shown) [Compound 11h]: the inhibition constant Ki (Table 2-1) is 37.5 µM. Under “Table 2-1, read-out: IC50”, the IC50 came out at 63 µM. With `CCOC(=O)C1=C(C)OC(N)=C(C#N)C1c1ccc(OC)c(OC)c1` (stereo not shown) [Compound 11i], the IC50 (Table 2-1, read-out: IC50) is above 50 µM. Turning to `CCOC(=O)C1=C(C)OC(N)=C(C#N)C1c1ccc(C#N)cc1` (stereo not shown) [Compound 11j], the IC50 (Table 2-1, read-out: IC50) was above 100 µM. Turning to `CCOC(=O)C1=C(C)OC(N)=C(C#N)C1c1ccc(C(=O)O)cc1` (stereo not shown) [Compound 11k, 4-(2-Amino-3-cyano-5-(ethoxycarbonyl)-6-methyl-4H-pyran-4-yl)benzoic Acid], for the setting “Table 2-1”, the Ki was 18.4 µM. Further, the IC50 (Table 2-1, read-out: IC50) worked out at 31 µM. Turning to `CCOC(=O)C1=C(C)OC(N)=C(C#N)C1c1ccc([N+](=O)[O-])cc1` (stereo not shown) [Compound 11l], the concentration for half-maximal inhibition (IC50) (Table 2-1, read-out: IC50) was above 100 µM. Consider `CCOC(=O)C1=C(C)OC(N)=C(C#N)C1c1cccc(C(=O)O)c1` (stereo not shown) [Compound 11m, 3-(2-Amino-3-cyano-5-(ethoxycarbonyl)-6-methyl-4H-pyran-4-yl)benzoic Acid], for which the half-maximal inhibitory concentration (IC50) (Table 2-1, read-out: IC50) is above 100 µM. In the case of `CCOC(=O)C1=C(C)OC(N)=C(C#N)C1c1ccc(OC(C)=O)c(C)c1` (stereo not shown) [Compound 11n, Ethyl 4-(4-acetoxy-3-methylphenyl)-6-amino-5-cyano-2-methyl-4H-pyran-3-carboxylate], for the setting “Table 2-1, read-out: IC50”, the half-inhibitory concentration (IC50) was above 100 µM. Consider `CCOC(=O)C1=C(C)OC(N)=C(C#N)C1c1cc(C)c(OC(C)=O)c(C)c1` (stereo not shown) [Compound 11o, Ethyl 4-(4-acetoxy-3,5-dimethylphenyl)-6-amino-5-cyano-2-methyl-4H-pyran-3-carboxylate], for which, under “Table 2-1, read-out: IC50”, the 50% inhibitory concentration (IC50) is above 100 µM. With `CCOC(=O)C1=C(C)OC(N)=C(C#N)C1c1ccc(-c2ccccn2)cc1` (stereo not shown) [Compound 11p, Ethyl 6-amino-5-cyano-2-methyl-4-(4-(pyridin-2-yl)phenyl)-4H-pyran-3-carboxylate], the IC50 (Table 2-1, read-out: IC50) is above 100 µM. Still for that read-out and setting: as for `CCOC(=O)C1=C(C)OC(N)=C(C#N)C1c1cccnc1` (stereo not shown) [Compound 11q], the figure is above 50 µM; as for `CCOC(=O)C1=C(C)OC(N)=C(C#N)C1c1ccncc1` (stereo not shown) [Compound 11r], above 100 µM; as for `CCOC(=O)C1=C(C)OC(N)=C(C#N)C1c1ccc2ccccc2n1` (stereo not shown) [Compound 11s, Ethyl 6-amino-5-cyano-2-methyl-4-(quinolin-2-yl)-4H-pyran-3-carboxylate], 3 to 40 µM. Regarding `CCOC(=O)C1=C(C)OC(N)=C(C#N)C1c1cnc2ccccc2c1` (stereo not shown) [Compound 11t, Ethyl 6-amino-5-cyano-2-methyl-4-(quinolin-3-yl)-4H-pyran-3-carboxylate], where the note is “Table 2-1, read-out: IC50”, the IC50 is above 100 µM. For the molecule `CCOC(=O)C1=C(C)OC(N)=C(C#N)C1c1ccnc2ccccc12` (stereo not shown) [Compound 11u, Ethyl 6-amino-5-cyano-2-methyl-4-(quinolin-4-yl)-4H-pyran-3-carboxylate], the IC50 (Table 2-1, read-out: IC50) was above 100 µM. `CCOC(=O)C1=C(CC)OC(N)=C(C#N)C1c1ccc(O)c(OC)c1` (stereo not shown) [Compound 12a]: the Ki (Table 2-2) is 85.1 µM. In addition, under “Table 2-2, read-out: IC50”, the half-maximal inhibitory concentration (IC50) was found to be 143 µM. With `CCOC(=O)C1=C(CC)OC(N)=C(C#N)C1c1ccc(O)c(OCC)c1` (stereo not shown) [Compound 12c], where the note is “Table 2-2”, the Ki is 67.2 µM. In addition, for the setting “Table 2-2, read-out: IC50”, the concentration for half-maximal inhibition (IC50) is 113 µM. As for `COC(=O)C1=C(C)OC(N)=C(C#N)C1c1ccc(C(=O)O)cc1` (stereo not shown) [Compound 13b, 4-(2-Amino-3-cyano-5-(methoxycarbonyl)-6-methyl-4H-pyran-4-yl)benzoic Acid], the Ki (Table 2-3) was 8.3 µM. Besides, the IC50 (Table 2-3, read-out: IC50) is 14 µM. Turning to `COC(=O)C1=C(C)OC(N)=C(C#N)C1c1ccc(O)cc1` (stereo not shown) [Compound 13c], the IC50 (Table 2-3, read-out: IC50) was above 100 µM.

Turning to `COC(=O)C1=C(C)OC(N)=C(C#N)C1c1ccc(O)c(OC)c1` (stereo not shown) [Compound 13d], the inhibition constant Ki (Table 2-3) is 8.3 µM. Where the note is “Table 2-3, read-out: IC50”, the half-maximal inhibitory concentration (IC50) worked out at 14 µM.

As for `COc1ccc(C2C(C#N)=C(N)OC(C)=C2C(=O)OCc2ccccc2)cc1OC` (stereo not shown) [Compound 14a], where the note is “Table 2-4”, the Ki is 16.7 µM. Under “Table 2-4, read-out: IC50”, the IC50 stood at 28 µM. As for `CC1=C(C(=O)OCc2ccccc2)C(c2ccc(C(=O)O)cc2)C(C#N)=C(N)O1` (stereo not shown) [Compound 14b, 4-(2-Amino-5-(benzyloxycarbonyl)-3-cyano-6-methyl-4H-pyran-4-yl)benzoic Acid], the inhibition constant (Ki) (Table 2-4) is 3 µM. For the setting “Table 2-4, read-out: IC50”, the 50% inhibitory concentration (IC50) was found to be 5 µM. Consider `COC(=O)c1ccc(C2C(C#N)=C(N)OC(C)=C2C(=O)OCc2ccccc2)cc1` (stereo not shown) [Compound 14c], for which the IC50 (Table 2-4, read-out: IC50) was in the range of 10 to 100 µM.

For `CC1=C(C(=O)OCc2ccccc2)C(c2ccc(C#N)cc2)C(C#N)=C(N)O1` (stereo not shown) [Compound 14d, Benzyl 6-amino-5-cyano-4-(4-cyanophenyl)-2-methyl-4H-pyran-3-carboxylate], the IC50 (Table 2-4, read-out: IC50) is above 100 µM. On to `CC(=O)C1=C(C)OC(N)=C(C#N)C1c1ccc(C(=O)O)cc1` (stereo not shown) [Compound 15a, 4-(3-Acetyl-6-amino-5-cyano-2-methyl-4H-pyran-4-yl)benzoic Acid], for which, for the setting “Table 2-5”, the inhibitory constant (Ki) was 1.8 µM. Also, the IC50 (Table 2-5, read-out: IC50) is 2 to 4 µM. With `CC(=O)C1=C(C)OC(N)=C(C#N)C1c1cccc(C(=O)O)c1` (stereo not shown) [Compound 15b, 3-(3-Acetyl-6-amino-5-cyano-2-methyl-4H-pyran-4-yl)benzoic Acid], the Ki (Table 2-5) was 3.9 µM. For the setting “Table 2-5, read-out: IC50”, the half-maximal inhibitory concentration (IC50) lay in the range of 6 to 7 µM.

`COc1cc(C2C(C#N)=C(N)OC(C)=C2C(C)=O)ccc1O` (stereo not shown) [Compound 15c]: for the setting “Table 2-5”, the Ki was 16.7 µM. For the same molecule, the IC50 (Table 2-5, read-out: IC50) worked out at 28 µM.

For the molecule `CC(=O)C1=C(C)OC(N)=C(C#N)C1c1ccc(C#N)cc1` (stereo not shown) [Compound 15d], the inhibition constant (Ki) (Table 2-5) is 59.5 µM.

`CC(=O)C1=C(C)OC(N)=C(C#N)C1c1ccc2ccccc2n1` (stereo not shown) [Compound 15i, 5-Acetyl-2-amino-6-methyl-4-(quinolin-2-yl)-4H-pyran-3-carbonitrile]: the Ki (Table 2-5) is 10.1 µM. For the same molecule, the IC50 (Table 2-5, read-out: IC50) was found to be 17 µM. Consider `CC(=O)C1=C(C)OC(N)=C(C#N)C1c1ccc2nccnc2c1` (stereo not shown) [Compound 15j, 5-Acetyl-2-amino-6-methyl-4-(quinoxalin-6-yl)-4H-pyran-3-carbonitrile], for which the IC50 (Table 2-5, read-out: IC50) is above 100 µM.

On to `CC(=O)NC1=C(C#N)C(c2ccc(C(=O)O)cc2)C(C(C)=O)=C(C)O1` (stereo not shown) [Compound 16, 4-(2-Acetamido-5-acetyl-3-cyano-6-methyl-4H-pyran-4-yl)benzoic Acid], for which the Ki (Table 2-6) is 4.2 µM.

Regarding `CCOC(=O)C1=C(C)OC(N)=C(C(=O)OCC)C1c1ccc(C(=O)O)cc1` (stereo not shown) [Compound 17a, 4-(2-Amino-3,5-bis(ethoxycarbonyl)-6-methyl-4H-pyran-4-yl)benzoic Acid], where the note is “Table 2-7”, the Ki is 4.2 µM. In addition, the half-maximal inhibitory concentration (IC50) (Table 2-7, read-out: IC50) stood at 7 µM. Turning to `COc1cc(C2C(C#N)=C(N)Oc3cc(C)oc(=O)c32)cc(Br)c1O` (stereo not shown) [Compound 18], the concentration for half-maximal inhibition (IC50) (Table 2-8, read-out: IC50 μ) was 40 µM.
